“And” between values parts separate entries of the source, which are not always exact repeats. Identical values can stand only once. Counter-ions that a name gives are not always drawn.
Assays:
murine B16 melanoma = assay: Murine B16 melanoma model in vivo; set-up: species or system mouse (B6D2F1); conditions: for Survivors: 60-day
Protocol: 1) Murine B16 Melanoma Model
(§1) For the B16 melanoma model, the following procedure was used. B6D2F1 mice receive i.p. inocula of B16 murine melanoma brei prepared from B16 tumors growing s.c. in mice (day 0). […] If dosing information for agents is not available, the maximum tolerated dose (MTD) is determined in initial dose finding experiments in non-tumored mice.
(§2) The mean survival times of all groups are calculated, and results are expressed as mean survival of treated mice/mean survival of control mice (T/C)×100%. A T/C value of 150 means that the mice in the treated group lived 50% longer than those of the control group; this is sometimes referred to as the increase in life span or ILS value.
Mice that survive for 60 days are considered long-term survivors, or cures, in the B16 model. The universally accepted cut-off for activity in this model, which has been for years by the National Cancer Institute, is T/C=125. Conventional use of B16 over the years has set the following levels of activity: T/C<125, no activity, T/C=125-150, weak activity; T/C=150-200, modest activity; T/C=200-300, high activity; T/C>300, with long term survivors; excellent, curative activity.

murine P388 leukemia = assay: Murine P388 leukemia model in vivo; set-up: species or system mouse (B6D2F1)
Protocol: as §1, §2
For the P388 leukemia model, the procedure followed is exactly the same as the aforementioned B16 model. The tumor inoculum is prepared by removing ascited fluid containing P388 cells from tumored B6D2F1 mice, centrifuging the cells, and then resuspending the leukemia cells in saline. Mice receive 1×10^6 P388 cells i.p. on day 0.

[1] = system: MX-1 human breast tumor xenograft; assay: in vivo
Excerpt: For all the models, the vehicle used to deliver the analog of interest was isotonic saline.
For the MX-1 human breast tumor xenograft models, the following procedure was used. Nude mice are implanted s.c. by trocar with fragments of MX-1 mammary carcinomas harvested from s.c. growing MX-1 tumors in nude mice hosts. When tumors are approximately 5 mm×5 mm in size (usually about ten days after inoculation), the animals are pair-matched into treatment and control groups. Each group contains ten tumored mice, each of which is ear-tagged and followed individually throughout the experiment. The administration of drugs or vehicle begins the day the animals are pair-matched (day 1). The doses, route of drug administration and schedule are selected as appropriate for the study in question. If the MTD dose of an agent is not known, it is determined in an initial dosing experiment in non-tumored mice. In a typical experiment, drugs are given at their MTD and 1/2 MTD doses i.p. on a daily×5 schedule.
The experiment is usually terminated when control tumors reach a size of 2-3 g. Mice are weighed twice weekly, and tumor measurements are taken by calipers twice weekly, starting on day 1. These tumor measurements are converted to mg tumor weight by a well known formula, and from these calculated tumor weights the termination date can be determined. Upon termination, all mice are weighed, sacrificed, and their tumors excised. Tumors are weighed, and the mean tumor weight per group is calculated.
Some drugs cause tumor shrinkage in the MX-1 model. With these agents, the final weight of a given tumor is subtracted from its own weight at the start of the treatment on day 1. This difference divided by the initial tumor weight is the % shrinkage. A mean % tumor shrinkage can be calculated from data from the mice in a group that experienced MX-1 regressions. If the tumor completely disappears in a mouse, this is considered a complete regression or complete tumor shrinkage. If desired, mice with partial or total tumor regressions can be kept alive past the termination date to see whether they live to become long term, tumor-free survivors.
Note that in the following table the abbreviation SR refers to tumor shrinkage rate, while those entries followed by a superscripted `2` are tumor growth inhibition rates, not tumor shrinkage rates.

[2] = system: human lung tumor xenograft; assay: Human lung tumor xenograft model; type: in vivo, human tumor in nude mice
Excerpt: (§3) For the human lung and prostate tumor xenograft models the following procedure was used. Nude mice were implanted s.c. by trocar with fragments of human lung or prostate carcinomas harvested from s.c. growing tumors in nude mice hosts. When tumors were approximately 5 mm×5 mm in size (usually ten to fourteen days after inoculation), the animals were pair-matched into treatment and control groups. Each group contained 10 tumored mice, each of which was ear-tagged and followed individually throughout the experiment. […] The doses, route of drug administration and schedule were selected as appropriate for the study in question. (See above protocol). […] Topotecan was run as a positive control at its MTD dose on a daily×5 and a daily×1 schedule. Male nude mice were used for both prostate studies.
(§4) Mice are weighed twice weekly, and tumor measurements were taken by calipers twice weekly, starting on day 1.
(§5) Some drugs cause tumor shrinkage in the human tumor xenograft models. […] A mean % tumor shrinkage can be calculated from the data from the mice in a group that experienced tumor regressions.

[3] = system: human prostate tumor xenograft; assay: Human prostate tumor xenograft model; type: in vivo, human tumor in nude mice
Excerpt: as §3, §4, §5

[4] = as hydrochloride salt; cited from earlier work
topoisomerase I = conditions: TPT-HCl; Wall et al.; cited from earlier work
P388 murine leukemia = conditions: vs unmodified camptothecin, side by side; cited from earlier work
Lewis lung carcinoma = conditions: vs unmodified camptothecin, side by side; cited from earlier work
B16 murine melanoma = conditions: vs unmodified camptothecin, side by side; cited from earlier work
[5] = human, in vivo; cited from earlier work
carcinoma cells = conditions: in vitro clonogenic assay / tumor cell growth, in words; cited from earlier work
tumor growth = conditions: in words; cited from earlier work

## CC[C@@]1(O)C(=O)OCc2c1cc1n(c2=O)Cc2cc3c(CN(C)C)c(O)ccc3nc2-1 [TPT, [(s)-9-dimethylaminomethyl-10-hydroxycamptothecin hydrochloride], reference compound]
Murine B16 melanoma; 2 mg/kg
  60-day survivors (cures): one
Murine B16 melanoma; 2 mg/kg i.p. daily×5
  T/C (mean survival treated/control): 201%
  Tox Deaths: 0/10
  ΔWeight (%): +1.9%
  Survivors: 1/10
Murine B16 melanoma; 2 mg/kg i.p. daily×5, listed as Topotecan
  T/C (mean survival treated/control): 210%
Murine B16 melanoma; 4 mg/kg i.p. daily×5
  T/C (mean survival treated/control): 212%
  Tox Deaths: 0/10
  ΔWeight (%): -7.0%
  Survivors: 0/10
Murine P388 leukemia; 4 mg/kg daily×5
  30-day survivors: Three
Murine P388 leukemia; 4 mg/kg i.p. daily×5
  T/C (mean survival treated/control): 297%
  Tox Deaths: 0/10
  ΔWeight (%): -6.6%
Murine P388 leukemia; 4 mg/kg i.p. daily×5, 30-day
  Survivors: 3/10
Murine P388 leukemia; i.p. five day schedule, in words
  efficacy vs P388 leukemia: comparable to that produced by HAR 6
[1]; 4 mg/kg
  weight loss: 15%
[1]; 4 mg/kg i.p. daily×5
  Tox Deaths: 0/10
  ΔWeight (%): -15.4%
[1]; 4 mg/kg i.p. daily×5, all 10 mice, HAR 6 experiment
  mean tumor shrinkage: 94%
[1]; 4 mg/kg i.p. daily×5, partial (94%)
  Shrinkage (animals): 6/10
[1]; 4 mg/kg, HAR 6 experiment
  mice with tumor shrinkage: 10
  mortality: no mortality
[1]; 4 mg/kg, second experiment
  complete regressions: one
  drug-related deaths: one
  mice with tumor growth inhibition: two
  partial responders: six
[1]; 4 mg/kg, complete (100%) shrinkage
  Shrinkage (animals): 1/10
[1]; 4 mg/kg, two mice, second experiment
  tumor growth inhibition: 94%
[1]; in vivo
  SR(%) (Tumor Shrinkage Rate): 94% and 100%
[2]; 4 mg/kg × 5 days
  Deaths: 0/10
  Shrink (% Tumor Shrinkage Rate): 55%
  Shrink (number of animals): 2/10
  TGI (% Tumor Growth Inhibition Rate): 66%
  TGI (number of animals): 8/10
[2]; 8 mg single ds
  Deaths: 0/10
  Shrink (number of animals): 0/10
  TGI (number of animals): 0/10
[2]; single dose, in words
  efficacy, single dose: completely ineffective
[3]; 3 mg/kg × 5 days
  Deaths: 0/10
  Shrink (number of animals): 0/10
  TGI (% Tumor Growth Inhibition Rate): 35%
  TGI (number of animals): 10/10
[3]; 8 mg single ds
  Deaths: 0/10
  Shrink (number of animals): 0/10
  TGI (number of animals): 0/10
[3]; single dose, in words
  efficacy, single dose: completely ineffective
[4]
  water solubility: 1000 µg/mL
Topoisomerase I
  IC50: 1100 nM
  topoisomerase I IC50: 0.504 µg/mL
P388 murine leukemia
  in vivo antitumor efficacy: superior to unmodified camptothecin
Lewis lung carcinoma
  in vivo antitumor efficacy: superior to unmodified camptothecin
B16 murine melanoma
  in vivo antitumor efficacy: superior to unmodified camptothecin
[5]
  side effects in human clinical studies: myelosuppression, neutropenia, and thrombocytopenia
Carcinoma cells
  anti-tumor effect in vitro: significant anti-tumor effects
Tumor growth
  effectiveness against tumor growth in animal studies: at least as good or better than camptothecin

— patent US5932709A (University of Michigan, priority 1997, dated 1999)
